From patent US12128015B2, “APE/REF1 inhibitors for the treatment of cancer” (Chapman University, priority 2021, dated 2024)
Entries after “also recorded” stand apart in the source; their conditions may differ. Like-named read-outs stand apart in the source and are kept apart here.

Assays:
HT1080 cells = conditions: cited from earlier work
[1] = HPLC analysis of the drug suspension after compounding; format: physicochemical; conditions: DMSO solution diluted in normal saline, sonicated 15 min at room temperature
Experimental: (§1) Given the limited water solubility, lead compound 2 (in DMSO) was further diluted in normal saline, the drug suspension, and sonicated at room temperature for 15 min. before injection to nude mice. […] The drug suspension was made fresh daily and injected into mice immediately after the compounding.

[2] = tested on: human melanoma A375 and SK-Mel-28 cells; experiment: MTT cytotoxicity in human melanoma A375 and SK-Mel-28 cells (Table 1); format: cell-based; conditions: for IC50: read-out: IC50 (50% inhibition of cell survival), MTT assay; for anti-melanoma activity (MTT): in words
Description: (§2) All the cells were passaged once reaching 70-90% confluence.
(§3) (MTT) metabolized by alive cells.

AP-1 transactivation = experiment: Luciferase assay to determine AP-1 transactivation activities in A375 cells; format: cell-based, human; conditions: for inhibition of H2O2-activated AP-1 transactivation: compound 10 μM
Description: FIG. 3. Inhibition of AP-1 transcriptional activation in human melanoma A375 cells by compound 2. A375 cells were transfected with an AP-1 luciferase reporter plasmid. […] After treatments, the cells were harvested to determine the luciferase activity, expressed as a fold of control without any treatment. The results normalized by cell numbers represent means±S.D of triplicates. *, p<0.05 compared to control; **, p<0.05 compared to H2O2-treatment.
3×AP1pGL3 (3×AP-1 in pGL3-basic; Addgene plasmid #40342), which contains three canonical AP-1 binding sites (TGACTCA) upstream of a minimal promoter fragment containing a TATA box in the luciferase reporter plasmid pGL3-basic. 3×AP1pGL3 was transfected to human melanoma A375 cells using Lipofectamine 2000 following the manufacturer's instructions (Invitrogen). […]
After different treatments, the cells were rinsed twice with phosphate-buffered saline (PBS). Cells were then scraped from the plates in PBS and pelleted for 4 min at 4° C. in a microcentrifuge at 12,000 rpm. Cell pellets were resuspended in 100 μL luciferase lysis buffer for luciferase assay as described (Promega). Luciferase activity measured in relative light units reflects the AP-1 transcription rate and was detected by a SpectraMax M5 UV VIZ Plate Reader. Cell count was conducted for normalization. All the samples were studied in duplicate, and readings were taken in triplicate. Each experiment was repeated at least two times.

[3] = tested on: Hermes 4A melanoblast cells; experiment: MTT cell viability assay, Hermes 4A melanoblast cells; format: cell-based, human; conditions: 72 h treatment
Description: as §3

[4] = tested on: Hermes 1 melanoblast cells; conditions: 72 h
[5] = tested on: Hermes 3A melanoblast cells; experiment: MTT cell viability assay, Hermes 3A melanoblast cells; format: cell-based, human; conditions: 72 h treatment
Description: as §3

[6] = tested on: A375 metastatic melanoma xenograft; experiment: In vivo xenograft melanoma (A375 cells in nude mice)
Experimental: FIG. 4. Compound 2 inhibited the tumor growth of human melanoma in vivo. Metastatic melanoma A375 cells were injected into male nude mice subcutaneously on the flank. Compound 2 was administered i.p. daily at the dose of 5 mg/kg. The growth of the tumor was measured daily, and tumor volume was measured by digital calipers and determined using the formula (mm^3)=[L×(W2)]/2. Tumor growth was presented as a fold of increase in size (mean±SD). *, p<0.05 compared to control (N=7; Compound 2 group, N=5).
The Institutional Animal Care and Use Committee approved all the animal procedures at Chapman University (IACUC #2020-1131). Male nude mice (Nu/Nu) were purchased from Charles River and were housed and maintained in the Chapman University vivarium under pathogen-free conditions. Human A375 metastatic melanoma cells were injected subcutaneously into the mouse's flank (1×10^6 cells per mouse). Three days-post tumor cell injection, mice were randomized into different groups. The treatment group was injected with compound 2 (5 mg/kg/day, i.p.) for 21 days. The growth of the tumors was monitored three times a week and measured using digital Vernier calipers. The size of the tumors was calculated as tumor volume (mm^3)=[L×(W2)]/2. The mice were sacrificed at the end of the experiment.
as §1

[7] = Water solubility: drug precipitation in the media; format: physicochemical
A375 melanoma cells = experiment: MTT cell viability assay, A375 melanoma cells; format: cell-based, human; conditions: for cell viability: 1 μM, A375 cells (FIG. 2C), control = vehicle 0.1% DMSO
Description: as §2, §3

Sk-Mel-28 melanoma cells = conditions: read-out: IC50, cell viability; Sk-Mel-28 cells, MTT, 72 h
Experimental: Human malignant melanoma cells (A375, CRL-1619™; Sk-Mel-28, HTB-72™) were purchased from ATCC®. Cells were cultured in Dulbecco's Modified Eagle Medium (DMEM) (ATCC #30-2002) or Eagles' Minimum Essential Medium (EMEM) (ATCC #30-2003) supplemented with 10% fetal bovine serum (FBS) (ATCC #30-2020) at 37° C. in 5% CO2 incubator. All the cells were passaged once reaching 70-90% confluence.

[8] = tested on: human breast cancer cells; conditions: collective cell migration; chemo-invasion and colony formation with docetaxel; cited from earlier work
[9] = Phase I trial, cited from earlier work
melanoma cell lines = experiment: Toxicity of PNRI-299 in the inventors' tested melanoma cell lines; format: cell-based
[10] = 72 h, human melanoma A375 and SK-Mel-28 cells (compound 11: average of the two lines)

In the case of O=C(O)c1cc2cccc([N+](=O)[O-])c2[nH]1 [CRT0044876], the “concentration up to which no toxicity was seen” value (HT1080 cells; HT1080 cells, CRT0044876 alone) is listed as greater than 400 µM and the “concentration at which synergistic enhancement of methyl methanesulphonate cytotoxicity was evident” value (HT1080 cells) is listed as 200 µM.

In the case of O=C(/C=C/c1ccccc1)NCCCCCCCCCCCCNC(=O)/C=C/c1ccccc1 [Compound 2, (2E,2′E)-N,N′-(Dodecane-1,12-diyl)bis(3-phenylacrylamide)], the “chemical stability after compounding” value [1] is reported as “no evidence of chemical structural change after compounding”, the “dose dependence of cytotoxicity” value ([2]; MTT, 72 h) is reported as “Cytotoxicity is not dose-” and the “H2O2-activated AP-1 activity (luciferase)” value (AP-1 transactivation; compound 0.5 μM, H2O2 100 μM, 48 h, H2O2 alone 2.3-fold of control) is reported as 95.7 % of control. For the same compound, the “inhibition of basal AP-1 dependent transcription” value (AP-1 transactivation; without H2O2) was “did not display any inhibition”, the cytotoxicity [3] was “no significant cytotoxicity” and the cytotoxicity ([4]; human) was “more sensitive to compound 2, but the cytotoxicity was not elevated with increasing the concentrations”. The cytotoxicity [5] was “no significant cytotoxicity”, the tumor size ([6]; 5 mg/kg i.p. daily, after 21-day treatment, nude mice) was 44.7 % of control and the systemic toxicity ([6]; 5 mg/kg i.p. daily, nude mice) was “without producing any apparent systemic toxicities; also recorded: no significant systemic toxicity observed”. The “tumor growth inhibition compared to the control group” value ([6]; 5 mg/kg i.p., xenograft mouse model) was 44.7%.

For O=C(/C=C/c1ccc(O)cc1)NCCCCCCCCCCCCNC(=O)/C=C/c1ccc(O)cc1 [Compound 4], the IC50 [2, 10] was greater than 10000 nM and the “anti-melanoma activity (MTT)” value [2] was “significant loss of anti-tumor activity compared to compound 2”.

For O=C(/C=C/c1ccc(O)cc1)NCCCCCCNC(=O)/C=C/c1ccc(O)cc1 [Compound 5, (2E,2′E)-N,N′-(Hexane-1,6-diyl)bis(3-(4-hydroxyphenyl)acrylamide)], the IC50 ([2]; Homo sapiens, 72 h) was greater than 50000 nM and the “anti-melanoma activity (MTT)” value [2] was “loss of anti-melanoma activity compared to compound 2”.

For O=C(/C=C/c1cccc(O)c1)NCCCCCCCCCCCCNC(=O)/C=C/c1cccc(O)c1 [Compound 7, (2E,2′E)-N,N′-(dodecane-1,12-diyl)bis(3-(3-hydroxyphenyl)acrylamide)], the IC50 ([2]; Homo sapiens, 72 h) was greater than 10000 nM and the “anti-melanoma activity (MTT)” value [2] was “significant loss of anti-tumor activity compared to compound 2”.

Work on NCCCCCCCCCCCCNC(=O)/C=C/c1cccc(O)c1 [Compound 8, (E)-N-(12-Aminododecyl)-3-(3-hydroxyphenyl) acrylamide] yielded an IC50 ([2]; Homo sapiens, 72 h) greater than 25000 nM.

In the case of O=C(/C=C/c1ccccc1)NCCCCCCCCCCCCNC(=O)/C=C/c1cccc(O)c1 [Compound 9, (E)-N-(12-Cinnamamidododecyl)-3-(3-hydroxyphenyl) acrylamide], the IC50 ([2]; Homo sapiens, 72 h) is reported as greater than 10000 nM and the “anti-melanoma activity (MTT)” value [2] is reported as “poor anti-melanoma activity”.

With NCCCCCCCCCCCCNC(=O)C=Cc1ccccc1 [Compound 10, N-(12-Aminododecyl)cinnamamide] the IC50 ([2]; Homo sapiens, 72 h) was greater than 25000 nM.

In the case of O=C(C=Cc1ccccc1)NCCCCCCCCCCCCNC(=O)/C=C/c1ccc(O)cc1 [Compound 11, (E)-N-(12-Cinnamamidododecyl)-3-(4-hydroxyphenyl) acrylamide], the IC50 [2, 10] is reported as 79 ± 13 nM, the “anti-melanoma activity (MTT)” value [2] is reported as “potent cytotoxic effect” and the “inhibition of H2O2-activated AP-1 transactivation” value (AP-1 transactivation; H2O2 100 μM, 48 h) is reported as “failed to inhibit”. For the same compound, the IC50 ([4]; read-out: IC50, cell viability, Hermes 1 melanoblast cells, MTT) was 274 nM, the “precipitation concentration relative to compound 2” value [7] was “approximately 8 folds” and the “water solubility and stability” value ([7]; compared to compound 2) was “improved water solubility and stability compared to compound 2”. For the same compound, the “concentration at which drug precipitation was evident” value ([7]; in the media) was -20 µM, the cell viability (A375 melanoma cells) was 19 % of control and the IC50 (A375 melanoma cells; A375 cells, MTT, 72 h) was 88 nM. The IC50 (Sk-Mel-28 melanoma cells) was 70 nM.

For O=C(/C=C/c1ccccc1)NCCCCCCNC(=O)/C=C/c1ccccc1 [Compound 12, (2E,2′E)-N,N′-(hexane-1,6-diyl)bis(3-phenylacrylamide)], the IC50 ([2]; Homo sapiens, 72 h) was greater than 10000 nM.

For CCCCCCCCC/C(=C\C1=C(C)C(=O)C(OC)=C(OC)C1=O)C(=O)O [Compound E3330], the “inhibition of H2O2-activated AP-1 transactivation” value (AP-1 transactivation; H2O2 100 μM, 48 h) is given as “only reduced the AP-1 activity marginally, which was not statistically significant”, the cell viability (A375 melanoma cells) is given as 102.6 % of control and the “concentration at which inhibitory activity was evident” value [8] is given as 50 µM. The “patients with disease stabilization for ≥4 cycles” value ([9]; cancer patients) was “six of nineteen” and the “duration of treatment with stable disease, one melanoma patient” value [9] was 245 days.

For N#Cc1cccc(-n2c(=O)n3n(c2=O)C(C(=O)NCc2ccccc2)=CC(=O)C3)c1 [PNRI-299], the “concentration up to which neither toxicity nor synergistic effects were observed” value (melanoma cell lines) was greater than 100 µM.
